Data as given in US8129558B2, “Pesticide naphthyloxy substituted phenylamidine derivatives” (Bayer Cropscience AG, priority 2005, dated 2012).

System: not listed separately
Assay: logP determination by HPLC on reversed-phase column (C18), EEC Directive 79/831 Annex V.A8
Format: physicochemical
Conditions: C18, 40° C., 0.1% aqueous formic acid and acetonitrile
Protocol: Calibration was carried out using unbranched alkan-2-ones (comprising 3 to 16 carbon atoms) with known logP values (determination of the logP values by the retention times using linear interpolation between two successive alkanones).

Structure (SMILES)	logPa
CCN(C)C=Nc1cc(C)c(Oc2ccc3ccc(O)cc3c2)cc1C [Compound 5]	1.92
Cc1cc(Oc2ccc3ccc(O)cc3c2)c(C)cc1N=CN(C)C(C)C [Compound 6]	2.02
CCN(C)C=Nc1cc(C)c(Oc2ccc3cc(Br)ccc3c2)cc1C [Compound 8]	2.69
CCCN(C)C=Nc1cc(C)c(Oc2ccc3cc(C#N)ccc3c2)cc1C [Compound 10]	2.23
Cc1cc(Oc2ccc3cc(C(=O)c4ccccc4)ccc3c2)c(C)cc1N=CN(C)C(C)C [Compound 13]	2.75
CCCN(C)C=Nc1cc(C)c(Oc2ccc3cc(C(=O)c4ccccc4)ccc3c2)cc1C [Compound 15]	2.77
CCN(C)C=Nc1cc(C)c(Oc2ccc3ccc(OC)cc3c2)cc1C [Compound 17]	2.44
CCCN(C)C=Nc1cc(C)c(Oc2ccc3ccc(OC)cc3c2)cc1C [Compound 18]	2.61
CCCCNc1ccc2ccc(Oc3cc(C)c(N=CN(C)C(C)C)cc3C)cc2c1 [Compound 20]	2.91
Cc1cc(Oc2ccc3ccccc3c2)c(C)cc1N=CN1CCNCC1 [Compound 22]	1.55
Cc1cc(Oc2ccc3ccccc3c2)c(C)cc1N=CN1CCN(C)CC1 [Compound 23]	1.64
CCCCNc1ccc2ccc(Oc3cc(C)c(N=CN(C)CC)cc3C)cc2c1 [Compound 24]	2.62
CCCCNc1ccc2ccc(Oc3cc(C)c(N=CN(C)CCC)cc3C)cc2c1 [Compound 25]	2.91
Cc1cc(Oc2ccc3ccccc3c2)c(C)cc1N=CN1CCCC1 [Compound 26]	2.33
CON=C(c1ccccc1)c1ccc2cc(Oc3cc(C)c(N=CN(C)C(C)C)cc3C)ccc2c1 [Compound 27]	3.20
CCN(C)C=Nc1cc(C)c(Oc2ccc3cc(C(=NOC)c4ccccc4)ccc3c2)cc1C [Compound 28]	3.05
COc1ccc2cc(Oc3cc(C)c(N=CN(C)C(C)C)cc3C)ccc2c1 [Compound 30]	2.70
Cc1cc(Oc2ccc3cc(S(=O)(=O)NCCO)ccc3c2)c(C)cc1N=CN(C)C(C)C [Compound 31]	1.75
CCN(C)C=Nc1cc(C)c(Oc2cccc3ccccc23)cc1C [Compound 32]	2.43
CC(=O)O.CCN(C)C=Nc1cc(C)c(Oc2ccc3ccccc3c2)cc1C [Compound 34]	2.33
CCN(C)C=Nc1cc(C)c(Oc2ccc3ccccc3c2)cc1C.O=C(O)C(=O)O [Compound 35]	2.25
CCN(C)C=Nc1cc(C)c(Oc2ccc3ccccc3c2)cc1C.O=C(O)c1ccccc1 [Compound 36]	2.44

Next, values leading:

logPa	Structure (SMILES)
2.21	CCN(C)C=Nc1cc(C)c(Oc2ccc3cc(C(O)c4ccccc4)ccc3c2)cc1C (racemic) [Compound 19]
2.52	Cc1cc(Oc2ccc3ccccc3c2)c(C)cc1N=CN(C)C(C)C [Compound 4]
2.92	Cc1cc(Oc2ccc3cc(Br)ccc3c2)c(C)cc1N=CN(C)C(C)C [Compound 7]
2.89	CCCN(C)C=Nc1cc(C)c(Oc2ccc3cc(Br)ccc3c2)cc1C [Compound 9]
2.07	CCN(C)C=Nc1cc(C)c(Oc2ccc3cc(C#N)ccc3c2)cc1C [Compound 11]
2.20	Cc1cc(Oc2ccc3cc(C#N)ccc3c2)c(C)cc1N=CN(C)C(C)C [Compound 12]
2.66	CCN(C)C=Nc1cc(C)c(Oc2ccc3cc(C(=O)c4ccccc4)ccc3c2)cc1C [Compound 14]
2.56	COc1ccc2ccc(Oc3cc(C)c(N=CN(C)C(C)C)cc3C)cc2c1 [Compound 16]
2.21	Cc1cc(Oc2ccc3ccccc3c2)c(C)cc1N=CN1CCOCC1 [Compound 21]
3.14	CCCN(C)C=Nc1cc(C)c(Oc2ccc3cc(C(=NOC)c4ccccc4)ccc3c2)cc1C [Compound 29]

Same assay, conditions: pH 2.3, C18

log P (pH 2.3)	Structure (SMILES)
5.04	Cc1cc([N+](=O)[O-])c(C)cc1Oc1ccc2ccccc2c1 [4-(naphthyl-2-oxy)-2,5-dimethylnitrobenzene]
2.38	CCN(C)C=Nc1cc(C)c(Oc2ccc3ccccc3c2)cc1C [Compound 1, N-ethyl-N-methyl-N′-[4-(naphthyl-2-oxy)-2,5-xylyl]form-amidine]
2.51	Cc1cc(Oc2ccc3ccccc3c2)c(C)cc1N=CN1CCCCC1 [Compound 2, Piperidinyl-N-[4-(naphthyl-2-oxy)-2,5-xylyl]form-amidine]

System: Heliothis viresens
Assay: Efficacy Example I: in vivo protective test on Heliothis viresens (HELIVI)
Parameters: species or system Heliotis virescens
Conditions: soybean leaf sections sprayed, infested with eggs of cotton bollworm; concentration and time not given
Protocol: in vivo Protective Test on Heliothis viresens (HELIVI)
(§1) To produce a suitable preparation of active compound, 1 part by weight of active compound is mixed with the stated amount of solvent and emulsifier, and the concentrate is diluted with emulsifier-containing water to the desired concentration.
Soybean (Glycine max.) leaf sections are sprayed with a preparation of the active ingredient of the desired concentration. Once dry, the leaf sections are infested with eggs of cotton bollworm (Heliotis virescens).
After the specified period of time, mortality in % is determined. 100% means that all eggs have been killed and 0% means that none of the eggs have been killed.

Structure (SMILES)	activity (mortality in %)
CCCN(C)C=Nc1cc(C)c(Oc2ccc3cc(C#N)ccc3c2)cc1C [Compound 10]	good activity
Cc1cc(Oc2ccc3cc(C(=O)c4ccccc4)ccc3c2)c(C)cc1N=CN(C)C(C)C [Compound 13]	good activity

System: Myzus persicae
Assay: Efficacy Example H: in vivo protective test on Myzus persicae (MYZUPE)
Conditions: Chinese cabbage leaf-disks infected with all instars of green peach aphid, sprayed; concentration and time not given
Protocol: in vivo Protective Test on Myzus persicae (MYZUPE)
as §1
Chinese cabbage (Brassica pekinesis) leaf-disks infected with all instars of the green peach aphid (Myzus persicae), are sprayed with a preparation of the active ingredient at the desired concentration.
After the specified period of time, mortality in % is determined. 100% means that all aphids have been killed; 0% means that none of the aphids have been killed.

Structure (SMILES)	activity (mortality in %)
CCN(C)C=Nc1cc(C)c(Oc2ccc3ccc(OC)cc3c2)cc1C [Compound 17]	good activity
